Assay results from patent US20090054392A1, “NAPHTHYLPYRIMIDINE, NAPHTHYLPYRAZINE AND NAPHTHYLPYRIDAZINE ANALOGS AND THEIR USE AS AGONISTS OF THE WNT-BETA-CATENIN CELLULAR MESSAGING SYSTEM” (Wyeth, priority 2007, published 2009).
pEC50: −log10 of the molar value.

System: Dkk1-LRP5-TCF-Luciferase
Assay: Functional Dkk1-LRP5-TCF-Luciferase Assay in U2OS Cells
Conditions: for fold induction at 2 µM / fold induction at 20 µM / pEC50: Homo sapiens, U2OS; for fold induction at 2 µM: read-out: B = TCF ACTIVITY/DMSO CONTROL Fold induction @ 2.0 uM, 2.0 uM compound; for fold induction at 20 µM: read-out: C = TCF ACTIVITY/DMSO CONTROL Fold induction @ 20.0 uM, 20.0 uM compound; for A = MAX FOLD Induction/DMSO CONTROL: maximum fold induction over DMSO control

| SMILES | fold induction at 2 µM | fold induction at 20 µM | A = MAX FOLD Induction/DMSO CONTROL [fold] | pEC50 |
| --- | --- | --- | --- | --- |
| [N-]=[N+]=NCCC1CCN(c2nccc(-c3ccc4ccccc4c3)n2)CC1 [2-[4-(2-azidoethyl)piperidin-1-yl]-4-(2-naphthyl)pyrimidine] | 1 | 1.67 |  |  |
| CN(c1nccc(-c2ccc3ccccc3c2)n1)C1CCN(CC(N)=O)CC1 [2-(4-{methyl[4-(2-naphthyl)pyrimidin-2-yl]amino}piperidin-1-yl)acetamide] | 2.62 | 0.02 | 2.215 |  |
| c1ccc2c(c1)CCN(c1nccc(-c3ccc4ccccc4c3)n1)C2 [2-[4-(2-naphthyl)pyrimidin-2-yl]-1,2,3,4-tetrahydroisoquinoline] | 0.95 | 1.38 |  |  |
| NC1CCN(c2nccc(-c3ccc4ccccc4c3)n2)CC1 [1-[4-(2-naphthyl)pyrimidin-2-yl]piperidin-4-amine] | 2.11 |  | 1.580 | 6.01 |
| c1ccc2cc(-c3ccnc(N4CC[C@@H](CN5CCCC5)C4)n3)ccc2c1 [4-(2-naphthyl)-2-[(3S)-3-(pyrrolidin-1-ylmethyl)pyrrolidin-1-yl]pyrimidine] | 1.9 | 5.18 | 4.050 |  |
| O=C1CCCN1[C@H]1CCN(c2nccc(-c3ccc4ccccc4c3)n2)C1 [(3′S)-1′-[4-(2-naphthyl)pyrimidin-2-yl]-1,3′-bipyrrolidin-2-one] | 3.04 | 3.62 | 2.290 | 6.72 |
| c1ccc2cc(-c3ccnc(NC[C@H]4CCNC4)n3)ccc2c1 [4-(2-naphthyl)-N-[(3S)-pyrrolidin-3-ylmethyl]pyrimidin-2-amine] |  |  | 6.810 | 5.43 |
| CN(C)C(=O)[C@H]1CCCN1c1nccc(-c2ccc3ccccc3c2)n1 [N,N-dimethyl-1-[4-(2-naphthyl)pyrimidin-2-yl]-D-prolinamide] | 1.02 | 1.2 |  |  |
| CC(C)NC(=O)NCCC1CCN(c2nccc(-c3ccc4ccccc4c3)n2)CC1 [N-isopropyl-N′-(2-{1-[4-(2-naphthyl)pyrimidin-2-yl]piperidin-4-yl}ethyl)urea] | 1.46 | 1.58 |  |  |
| CN(c1nccc(-c2ccc3ccccc3c2)n1)[C@H]1CC[C@H](CN)CC1 [N-[trans-4-(aminomethyl)cyclohexyl]-N-methyl-4-(2-naphthyl)pyrimidin-2-amine] | 1.4 |  |  |  |
| CN(C)CCCN(C)[C@@H]1CCN(c2nccc(-c3ccc4ccccc4c3)n2)C1 [N,N,N′-trimethyl-N′-{(3R)-1-[4-(2-naphthyl)pyrimidin-2-yl]pyrrolidin-3-yl}propane-1,3-diamine] | 1.3 |  |  |  |
| CN(c1nccc(-c2ccc3ccccc3c2)n1)C1CCN(C(=O)c2ccccc2)CC1 [N-(1-benzoylpiperidin-4-yl)-N-methyl-4-(2-naphthyl)pyrimidin-2-amine] | 1.85 |  |  |  |
| CN(C)[C@H]1CCN(C[C@H]2CCN(c3nccc(-c4ccc5ccccc5c4)n3)C2)C1 [(3S)—N,N-dimethyl-1-({(3R)-1-[4-(2-naphthyl)pyrimidin-2-yl]pyrrolidin-3-yl}methyl)pyrrolidin-3-amine] | 2.55 | 0.02 | 2.260 |  |
| O=C(NCC1CCN(c2nccc(-c3ccc4ccccc4c3)n2)C1)c1ccccc1 (stereo not drawn) [N-({1-[4-(2-naphthyl)pyrimidin-2-yl]pyrrolidin-3-yl}methyl)benzamide] | 1.06 | 1.03 |  |  |
| CN[C@H]1CCN(c2nccc(-c3ccc4ccccc4c3)n2)C1 [(3S)—N-methyl-1-[4-(2-naphthyl)pyrimidin-2-yl]pyrrolidin-3-amine] | 1.75 |  |  |  |
| NC[C@H]1CC[C@@H](Oc2nccc(-c3ccc4ccccc4c3)n2)CC1 [1-{cis-4-[(4-naphthalen-2-ylpyrimidin-2-yl)oxy]cyclohexyl}methanamine] | 4.2 |  |  |  |
